# Experimental data from US5268389A, “Thiocarboxylate ester compounds compositions containing the same” (priority 1990, dated 1993).
# Experiments:
# [1] = set-up: species or system mice; conditions: mouse, in vivo, iv, 10 mg/kg/day
# Text: Initial studies on the toxicity of the compound of Example 1 were made on mice.
# for 5 days Per Day Test Toxicity
# HIV = experiment: Reduction of HIV cytopathic effect, MT2V (MT2 cells, free virus); assay type: cell-based; conditions: Human immunodeficiency virus 1, read-out: Activity of Anti-HIV Compounds (EC50), MT2V
# Method: The compounds of Examples were tested for anti-AIDS activity by subjecting them to standard National Cancer Institute ("NCI") in vitro screening procedures. In carrying out each test, two blanks were run. In the first blank, HIV and a culture of a standard human cell line were incubated together to measure the infectivity of the virus. The viability of the cells was measured after holding for six or seven days. In an "effective" test, most cells were infected before the holding period was complete.
# In the second blank, the cell line culture and the compound being tested (but not virus) were incubated together to measure the toxicity of the drug to the cellline. The viability of the cells was measured as a function of concentration of the compound, after holding for seven days. […]
# Finally, the protective effects of the test compounds were measured. Each cell culture and test compound were incubated with the virus and the viability of the cells was measured as a function of compound concentration after holding for six or seven days. […] At this point, cell viability increases steadily toward 100% unless the toxic effect of the compound (as measured in the second blank) takes effect. […] The therapeutic index TI50 is calculated as IC50/EC50.
# Values of test compound concentrations required for between 20 and 50% reduction of the viral cytopathic effect can also be determined. […]
# various fungi = conditions: variety of crops; cited from earlier work
# host DNA synthesis = conditions: administration of AZT; cited from earlier work
compound,measurement,setting,value
"CC1=C(C(=O)Nc2ccc(Cl)c(C(=O)OC(C)C)c2)SCCO1 [Compound 1, 1-Methylethyl 2-chloro-5-[[(5,6-dihydro-2-methyl-1,4-oxathiin-3-yl)carbonyl]amino]benzoate]","Result, Toxicity",[1],No visible sign
same,EC50,HIV,2.6 µM
"CC1=C(C(=O)Nc2ccccc2)SCCO1 [carboxin, 5,6-dihydro-2-methyl-N-phenyl-1,4-oxathiin-3-carboxamide]",control of fungi by seed treatment,various fungi,providing control by seed treatment of various fungi
"Cc1cn([C@H]2C[C@H](N=[N+]=[N-])[C@@H](CO)O2)c(=O)[nH]c1=O [AZT, Azidothymidine]",side effects,host DNA synthesis,"severe side effects, e.g., anemia, granulocytopenia, and thrombocytopenia"
